Results reported in patent publication US12370167B2, “Blood-brain barrier permeability regulator and use thereof” (ZHEJIANG UNIVERSITY, priority 2019, dated 2025).

Key:
Assay type in all cases: cell-based
[1] = system: brain microvascular endothelial cells bEnd.3; assay: FITC-dextran transport across physiological blood-brain barrier Transwell model; conditions: SC79 0, 5, 10 μg/mL; 24 hours, then FITC-dextran 10 kDa for 4 hours
Experimental: FIG. 7: In vitro dose-dependent influence of SC79 on the efficiency of transportation of FITC-dextran cross the blood-brain barrier. A Transwell model of brain microvascular endothelial cells bEnd.3 was used to mimic the physiological blood-brain barrier. SC79 at different concentrations (0, 5 μg/mL, 10 μg/mL) was applied to the Transwell chamber. After 24 hours, the Transwell chamber and the outer chamber were washed with PBS. A solution of FITC-dextran in HBSS was added to the Transwell chamber for an action of 4 hours.
Brain microvascular endothelial cells bEnd.3 were used as model cells of a blood-brain barrier. 0.5 mL suspension of well-grown bEnd.3 cells was inoculated in the chamber of a 12-well Transwell plate with a pore size of 0.4 μm at a cell density of 1×10^5/well. 1.5 mL of fresh culture medium was supplemented in the outer chamber. The culture medium was refreshed every other day. Incubation was continued for 15 days at 37° C. and 5% CO2. […]
A protein kinase B activator SC79 at different concentrations ([…], 10 μg/mL) was added into the Transwell chamber in the model of physiological blood-brain barrier. […] After the cells were incubated at 37° C. in the dark for 4 hours, the concentration of FITC-dextran transferred to the outer chamber via the Transwell chamber was detected with a fluorescence spectrophotometer.

[2] = system: brain microvascular endothelial cells bEnd.3; assay: Transmembrane resistance of physiological blood-brain barrier Transwell model, SC79 dose dependence; conditions: SC79 0, 5, 10 μg/mL; 24 hours; n=5
Experimental: A Transwell model of brain microvascular endothelial cells bEnd.3 was used to mimic the physiological blood-brain barrier. SC79 at different concentrations (0, 5 μg/mL, 10 μg/mL) was applied to the Transwell chamber. After 24 hours, the cell transmembrane resistance was detected by a cell resistance meter (n=5).
(§1) Brain microvascular endothelial cells bEnd.3 were used as model cells of a blood-brain barrier. 0.5 mL suspension of well-grown bEnd.3 cells was inoculated in the chamber of a 12-well Transwell plate with a pore size of 0.4 μm at a cell density of 1×10^5/well. 1.5 mL of fresh culture medium was supplemented in the outer chamber. The culture medium was refreshed every other day. Incubation was continued for 15 days at 37° C. and 5% CO2. When the cell transmembrane resistance value was greater than 150 ohm·cm^2 (Ω·cm^2), it may be regarded that a model of physiological blood-brain barrier was obtained.
A protein kinase B activator SC79 at different concentrations (0, 5 μg/mL, 10 μg/mL) was added into the Transwell chamber in the model of physiological blood-brain barrier. After 24 hours of the drug action, the Transwell chamber with bEnd.3 cells grown was transferred to another 12-well plate, and washed with PBS for 3 times. […] After the cells were equilibrated at 37° C. for 15 minutes, the cell transmembrane resistance was detected by a cell resistance meter.

[3] = system: tight junction proteins Claudin-5/Occludin in bEnd.3 cells; assay: Claudin-5/Occludin immunofluorescence in physiological blood-brain barrier Transwell model after SC79; conditions: SC79 0, 5, 10 μg/mL, 24 hours
Experimental: FIG. 8: In vitro dose-dependent down-regulation of expression of tight junction proteins Claudin-5/Occludin by SC79. A Transwell model of brain microvascular endothelial cells bEnd.3 was used to mimic the physiological blood-brain barrier. SC79 at different concentrations (0, 5 μg/mL, 10 μg/mL) was applied to the Transwell chamber. After 24 hours, the bEnd.3 cells on the membrane of the Transwell chamber were immunofluorescence stained.
as §1
A protein kinase B activator SC79 at different concentrations (0, 5 μg/mL, 10 μg/mL) was added into the Transwell chamber in the model of physiological blood-brain barrier. […]

CCOC(=O)C1=C(N)Oc2ccc(Cl)cc2C1C(C#N)C(=O)OCC (stereo not drawn) [SC79]
blood-brain barrier permeability (FITC-dextran in outer chamber) [1]: increase the blood-brain barrier permeability | cell transmembrane resistance [2]: dose-dependent regulation of transmembrane resistance | expression of tight junction proteins Claudin-5/Occludin [3]: promotes down-regulation of expression of tight junction proteins
